Legend:
[1] = tested on: primary AML cells; experiment: Apoptosis in primary AML samples, subG1 DNA flow cytometry; assay type: cell-based, human
Procedure: (§1) Subjects. Samples of bone marrow or peripheral blood were obtained for in vitro studies from patients with newly diagnosed or recurrent AML with high (>70%) blast count and from patients with myeloid transformation of chronic myeloid leukemia (CML). Informed consent was obtained following institutional guidelines. Mononuclear cells were separated by Ficoll-Hypaque (Sigma Chemical Co) density-gradient centrifugation.
Suspension culture of leukemic cells. Leukemic cell lines were cultured at a density of 3.0×10^5 cells/mL, and AML mononuclear cells at 5×10^5 cells/mL in the presence or absence of indicated concentrations of CDDO-Me. Appropriate amounts of DMSO (final concentration<0.05%) was included as a control. For cytotoxicity studies, 1 μM ara-C was added to the cultures.
Cell kinetic and DNA fragmentation studies. The cell cycle kinetics was determined by staining cells with acridine orange for cellular DNA and RNA content followed by flow cytometeric analysis as described. […] Ten thousand events were stored in list mode for analysis. The percentage of cells in the “sub G1 peak” defined the proportion of apoptotic cells in the tested populations. […] Cell-cycle kinetics was analyzed using ModFit software (Verity Software House, Inc., Topsham, Me.). […]

[2] = tested on: AML progenitors; experiment: AML blast colony assay; assay type: cell-based, human
Procedure: AML blast colony assay. A previously described method was used to measure AML blast colony formation. Briefly, 1×10^5 T-cell-depleted, nonadherent, low-density bone marrow cells were plated in 0.8% methylcellulose in Iscove's modified Dulbecco's medium (IMDM; Gibco Laboratories, Grand Island, N.Y.) supplemented with 10% fetal bovine serum and 15 ng/mL recombinant human granulocyte-macrophage colony-stimulating factor (hGM-CSF). CDDO or CDDO-Me was added at the initiation of cultures at concentrations ranging from 0.05 to 0.5 μg/mL. AML blast colonies were evaluated under a microscope on day 7 of culture in duplicate dishes.
(§2) The effect of CDDO on clonogenic AML cells were tested. […] (FIG. 7).
(§3) CDDO-Me. […] Effects of CDDO-Me were also tested on clonogenic AML cells.

[3] = tested on: CML-BC sample; experiment: Colony formation of CML-BC sample; assay type: cell-based, human; conditions: CDDO 0.5 μM, CDDO-Me 0.1 μM
[4] = tested on: normal CD34+ cells; experiment: CFU-GM of normal CD34+ cells (CFU-GEMM assay); assay type: cell-based, human; conditions: for CFU-GM generated from normal CD34+ cells detected: n=3
Procedure: CFU-Granulocyte-Erythroid-Macrophage-Megakaryocyte (CFU-GEMM) Assay. In three experiments, 2×10^5 CD34^+ cells isolated from normal bone marrow (n=1) or G-CSF-stimulated peripheral blood (n=2) were plated in 0.8% methylcellulose with IMDM, 1 U/mL human erythropoietin (Terry Fox Laboratories, Vancouver, Canada), and 50 ng/mL recombinant hGM-CSF. CDDO-Me was added at the initiation of cultures at concentrations ranging from 0.05 to 0.5 μg/mL.
as §2, §3

[5] = tested on: CML-blast crisis samples; experiment: Apoptosis and differentiation in CML-blast crisis samples in vitro; assay type: cell-based, human
Text: as §1
CDDO-Me. In primary AML, CDDO-Me induced apoptotic cell death in a dose-dependent fashion as determined by DNA flow cytometry (subG1): at 1 μM CDDO-Me, apoptosis was induced in 5 of 6 AML samples in vitro, and 5 μM induced apoptosis in 6 of 6 samples. More than 90% apoptotic cells were detected in 4/6 samples following exposure to 5 μM of CDDO-Me (FIG. 21A). At lower concentrations, CDDO-Me induced a dose-dependent increase in the percentage of the apoptotic cells in 4/4 samples tested (FIG. 21B). The paired mean difference between the CDDO-Me 0.1 μM and DMSO control is 26.9%±10.8% (CDDO-Me-DMSO, mean±SEM); and the paired mean difference between the CDDO-Me 0.5 μM and DMSO is 43.2%±5.2%. […] Effects of CDDO-Me were also tested on clonogenic AML cells. […] In contrast, 79±5.6% and 63.4±1.1% CFU-GM generated from normal CD34* cells were detected after 0.1 and 0.5 μM of CDDO-Me treatment (n=3).

[6] = tested on: U937 cells; experiment: Atlas Cancer cDNA array, differential gene expression; assay type: cell-based, human; conditions: 1 μM; CDDO 24 hrs, CDDO-Me 1 hour
Procedure: The differential expression of a large number of genes involved in apoptosis, proliferation and signal transduction were analyzed utilizing the Atlas Cancer c-DNA array from Clontech (Palo Alto, Calif.). […] The downregulation of 17 genes (over two-fold) was seen, some of these genes were MAPKK5, STAT5A and B, DNA topoisomerase 2, VEGFR1 and VEGF. […] Differential expression of a large number of genes involved in apoptosis, proliferation and signal transduction was also performed for CDDO-Me. […] In preliminary studies, the inventors observed over two-fold downregulation of 23 genes: these include MAPK/ERK2, endothelin2, MLH1. Remarkably, decreased expression of VEGFR1, that potentially mediate pro-angiogenic properties of the leukemic cells, was observed (FIG. 33). […] The cDNA array data require conformation but may indicate what changes in gene expression contribute to the observed anti-leukemic effects of CDDO-Me.

[7] = tested on: human leukemic KBM-3 cells; experiment: Engraftment of leukemic cells in NOD/Scid mice, FISH; assay type: in vivo; conditions: 6 mg/kg/day IP for 10 days
Procedure: The effect of CDDO on engraftment of leukemic cells was further tested in NOD/Scid mice transplanted with 1×10^6 human leukemic KBM-3 cells. Eleven mice were treated with CDDO at 6 mg/kg/day IP (divided in 3 injections per day) for 10 days; a control set of 9 mice received vehicle alone. The engraftment of human leukemic cells was determined by FISH based on the known karyotype of the cells (trisomy 8) at 5 weeks following transplantation. While 10.6±2.7% cells were leukemic in the bone marrow of the control group (range 0.12-21%), only 3±2.4% leukemic cells were found in CDDO-treated mice (range 0.04-12.5%, p=0.016). 5/11 CDDO-treated animals but only ⅛ controls had <1% leukemic cells by FISH analysis.

Structure (SMILES): COC(=O)[C@]12CCC(C)(C)C[C@H]1[C@H]1C(=O)C=C3[C@@]4(C)C=C(C#N)C(=O)C(C)(C)[C@@H]4CC[C@@]3(C)[C@]1(C)CC2 [CDDO-Me]
- paired mean difference to DMSO control (mean±SEM), apoptotic cells ([1]; 0.1 μM): 26.9%±10.8
- paired mean difference to DMSO control (mean±SEM), apoptotic cells ([1]; 0.5 μM): 43.2%±5.2
- AML samples in which apoptosis was induced ([1]; 1 μM): 5 of 6
- AML samples in which apoptosis was induced ([1]; 5 μM): 6 of 6
- samples with more than 90% apoptotic cells ([1]; 5 μM): 4/6
- cell killing in AML samples ([1]; CDDO-Me 1 μM, ara-C 1 μM, alone or combined, n=6 (DMSO control 24.9±7.4%)): 50.5±15%
- samples with dose-dependent increase in percentage of apoptotic cells ([1]; lower concentrations): 4/4
- surviving colonies ([2]; 0.1 μM): 46.7%±6.6
- surviving colonies ([2]; 0.3 μM): 27.5%±6.8
- surviving colonies ([2]; 0.5 μM): 8.8%±3.8
- inhibition of colonies in one CML-BC sample [3]: > 50%
- CFU-GM generated from normal CD34+ cells detected ([4]; 0.1 μM): 79±5.6%
- CFU-GM generated from normal CD34+ cells detected ([4]; 0.5 μM): 63.4±1.1%
- CML-blast crisis samples in which apoptosis was induced ([5]; 1 μM): 3 of 4
- CML-blast crisis samples in which apoptosis was induced ([5]; 5 μM): 4 of 4
- number of genes downregulated over two-fold [6]: 23
- number of genes upregulated [6]: Twenty-two

Structure (SMILES): CC1(C)CCC2(C(=O)O)CCC3(C)C(C(=O)C=C4C5(C)C=C(C#N)C(=O)C(C)(C)C5CCC43C)C2C1 (centres unmarked) [CDDO, 2-cyano-3,12-dioxoolen-1,9-dien-28-oic acid]
- AML samples in which apoptosis was induced ([1]; 1 μM): 3 of 6
- AML samples in which apoptosis was induced ([1]; 5 μM): 5 of 6
- apoptosis in AML samples ([1]; CDDO 1 μM, ara-C 1 μM, alone or combined, n=23 (DMSO control 27.7±3.7%)): 41.2±4.4%
- paired mean difference±SEM in apoptosis ([1]; CDDO vs DMSO): 13.5%±2.8
- colony formation of AML progenitors reduced ([2]; 1 μM, n=6): 58±4.6%
- inhibition at 0.5 µM ([3]; Homo sapiens, read-out: inhibition of colonies in one CML-BC sample): > 50%
- CFU-GM of normal CD34+ cells inhibited by ([4]; at this concentration (n=3)): 26.8±4.3%
- number of genes downregulated over two-fold [6]: 17
- number of genes upregulated [6]: 7
- animals with <1% leukemic cells by FISH [7]: 5/11
- leukemic cells in the bone marrow, range [7]: 0.04-12.5%
- leukemic cells in the bone marrow (FISH) ([7]; 5 weeks after transplantation (control 10.6±2.7%)): 3±2.4%

Reference: patent US7795305B2, “CDDO-compounds and combination therapies thereof” (Board of Regents, The University of Texas System, priority 2000, dated 2010)
